Reference: patent US20080269339A1, “COMBINED USE OF EGF PATHWAY INHIBITORS AND DIFFERENTIATION PROMOTING COMPOUNDS” (priority 2007, published 2008)

Tested on: Human keratinocytes
Experiment: Cornified envelope formation (terminal differentiation) in confluent human keratinocyte culture
Format: cell-based
Details: for keratinocyte differentiation (percent of cornified envelopes): agent alone vs vehicle control, confluent keratinocytes, 5 days (FIG. 2, FIG. 3)
Procedure: In this study, Keratinocyte Cell Culture-Neonatal foreskin kerinocytes, purchased from Lonza (Walkersville, Md., USA), were grown in keratinocyte-SFM (Gilbro-BRL, Gaithersburg, Md., USA). This complete medium consists of keratinocyte basal medium and supplements (Gibco-BRL), human combinant EGF (5 ng/mL) and bovine pituitary extract (50 μg protein/mL). The calcium concentration in this medium is 0.09 mM.
Unless indicated in the description for a particular figure set forth below, confluent fifth passage keratinocytes were used, with treatments beginning 2 days after the last addition of complete medium. The media was changed and the cells were pretreated with PD153035 (300 nM) for two hours. Media was again changed to contain PD153035 (300 nM) and epidermal growth factor (10 ng/mL) and left for 24 hours. The media was changed a final time to basal media supplemented with 1 mM CaCl2 and 0.1% bovine serum albumin with the indicated chemical additions. The cells were incubated at 37° C., 5% CO2 for 5 days before the comified envelopes were scored. The vehicle, DMSO, was used as the control for both PD153035 and TCDD.
In reference to FIG. 2, Human keratinocytes were grown to confluence and treated with vehicle of media (control), sodium butyrate, epidermal growth factor (EGF) or a combination of EGF and NAB for 5 days. Cornified envelope formation is an endpoint of terminal differentiation. The percent of comified envelopes was calculated by dividing the number of cornified envelopes by the number of cells (times 100).
In FIG. 3, Human keratinocytes were grown to confluence and treated with vehicle of dimethylsulfoxide (DMSO), 2,3,7,8-tetrachlorodibenzo-p-dioxin (TCDD), epidermal growth factor (EFG) or a combination of EGF and TCDD for 5 days. Comified envelope formation is an endpoint of terminal cell differentiation. The percent of cornified envelopes was calculated by dividing the number of cornified envelopes by the number of cells (times 100).
In FIG. 4, Human keratinocytes were grown to confluence and treated with vehicle of DMSO (−/−), sodium butyrate (NaB) alone (−/+); epidermal growth factor (EGF) alone (+/−) or a combination of EGF and NaB (+/+) with or without PD153035 for 5 days. Comified envelope formation is an endpoint of terminal cell differentiation. The average percent (n=3, +/−std dev) of cornified envelopes was calculated by dividing the number of cornified envelopes by the number of cells (times 100).
In FIG. 5, Human keratinocytes were grown to confluence and treated with vehicle of DMSO (−/−), TCDD alone (−/+), epidermal growth factor (EGF) alone (+/−) or a combination of EGF and TCDD (+/+) with or without PD153035 for 5 days. Cornified envelope formation is an endpoint of terminal cell differentiation. The average percent (n=3, +/−std dev) of comified envelopes was calculated by dividing the number of cornified envelopes by the number of cells (times 100).

Clc1cc2c(cc1Cl)Oc1cc(Cl)c(Cl)cc1O2 [TCDD, 2,3,7,8-tetrachlorodibenzo-p-dioxin]
keratinocyte differentiation (percent of cornified envelopes): increases in keratinocyte differentiation

COc1cc2ncnc(Nc3cccc(Br)c3)c2cc1OC [PD153035]
effect on sodium butyrate mediated differentiation (percent of cornified envelopes) (PD153035 300 nM, in the presence of EGF 10 ng/mL, 5 days, n=3 (FIG. 4)): increasing sodium butyrate mediated differentiation
effect on TCDD-mediated differentiation (percent of cornified envelopes) (PD153035 300 nM, in the presence of EGF 10 ng/mL, 5 days, n=3 (FIG. 5)): increasing TCDD-mediated differentiation

EGF: epidermal growth factor, a growth factor supporting the proliferation of epithelial cells
effect on TCDD increase in keratinocyte differentiation (percent of cornified envelopes) (combination of EGF and TCDD, 5 days (FIG. 3)): inhibited
effect on sodium butyrate increase in keratinocyte differentiation (percent of cornified envelopes) (combination of EGF and sodium butyrate, 5 days (FIG. 2)): inhibited

CCCC(=O)[O-].[Na+] [sodium butyrate]
keratinocyte differentiation (percent of cornified envelopes): increases in keratinocyte differentiation
